Results: ChEMBL document CHEMBL5241077 (Eur J Med Chem, 2021)
In brackets after ≈: the same amount, converted by molar mass.

Columns and labels:
dengue virus type 2 [1] = assay: Antiviral activity against DENV2 New Guinea C infected in hamster BHK-21 cells assessed as reduction viral titer incubated for 48 hrs by plaque assay; type: functional, organism-based; conditions: BHK-21, 48 h
dengue virus type 2 [2] = assay: Antiviral activity against DENV2 […] infected in hamster BHK-21 cells assessed as reduction viral titer incubated for 48 hrs by plaque assay; type: functional, organism-based; conditions: BHK-21, 48 h
dengue virus type 2 [3] = assay: Antiviral activity against DENV2 infected hamster BHK cells assessed as inhibition of virus-induced cytopathogenicity and measured after 20 hrs by flow cytometry; type: functional, organism-based
dengue virus type 2 [4] = assay: Antiviral activity against DENV2 infected in human HEK293 cells assessed as reduction in viral load incubated for 3 days by plaque reduction assay; type: functional; conditions: HEK293, 72 h, time 3 day
[5] = Binding affinity to Dengue virus serotype 2 envelope stem (419 to 447 residues) trimer peptide incubated for 3 hrs by fluorescence polarization assay; design: species or system dengue virus type 2
dengue virus type 2 [6] = assay: Antiviral activity against DENV2 ThNH-7/93 infected in hamster BHK-21 cells assessed as reduction in viral entry incubated for 2 hrs by focus forming assay; type: functional, organism-based; conditions: ThNH-7/93, BHK-21, 2 h
dengue virus type 2 [7] = assay: Antiviral activity against DENV2 infected in African green monkey Vero E6 cells assessed as inhibition of viral titer incubated for 48 hrs by plaque reduction assay; type: functional, organism-based
dengue virus type 2 [8] = assay: Antiviral activity against DENV2 TSV01 infected in Asian tiger mosquito C6/36 cells assessed as reduction in plaque forming unit incubated for 1 hrs by propidium iodide staining based fluorescence analysis; type: functional, organism-based; conditions: TSV01, C6/36, 1 h
dengue virus type 2 [9] = assay: Antiviral activity against DENV2 ThNH-7/93 infected in hamster BHK-21 cells assessed as reduction in virus titer incubated for 2 hrs by focus forming assay; type: functional, organism-based; conditions: ThNH-7/93, BHK-21, 2 h
dengue virus type 2 [10] = assay: Antiviral activity against DENV2 16681 infected in African green monkey Vero E6 cells assessed as inhibition of virus-induced cytopathic effect incubated for 1.5 hrs by plaque assay; type: functional, organism-based; conditions: Dengue virus, 16681, Vero
dengue virus type 2 [11] = assay: Antiviral activity against DENV2 PL046 infected in hamster BHK-21 cells assessed as reduction in plaque forming unit incubated for 7 days by crystal violet staining analysis; type: functional, organism-based; conditions: PL046, BHK-21, 168 h
dengue virus type 2 [12] = assay: Antiviral activity against DENV2 infected in African green monkey Vero E6 cells assessed as inhibition of viral replication incubated for 5 days by crystal violet staining based plaque reduction assay; type: functional, organism-based; conditions: 120 h

## CC(=O)N[C@@H]1[C@@H](O[C@@H]2O[C@@H](C(=O)O)[C@@H](O)[C@H](O)[C@H]2O)[C@@H](OS(=O)(=O)O)[C@@H](CO)O[C@H]1O
Dengue virus type 2 [1]
  IC50: 3 µg/mL (≈ 6.28 µM)
Dengue virus type 2 [2]
  IC50: 0.3 µg/mL (≈ 0.628 µM)

## O=S(=O)(O)O[C@@H]1[C@@H](OS(=O)(=O)O)[C@H](O[C@@H]2CO[C@@H](O)[C@H](OS(=O)(=O)O)[C@H]2OS(=O)(=O)O)OC[C@H]1O
Dengue virus type 2 [3]
  EC50: 30 µg/mL (≈ 49.8 µM)

## Nc1c(C(=O)Nc2nc(-c3ccccc3)cs2)sc2nc3c(cc12)CN(c1ccccc1)CC3
Dengue virus type 2 [4]
  IC90: 0.025 µM

## N#C/C(=N\Nc1cccc(Cl)c1)C(=O)c1ccco1
[5]
  IC50: 15 µM

## CC(=O)N[C@@H]1[C@@H](O[C@@H]2O[C@H](C(=O)O)[C@@H](O)[C@H](O)[C@H]2O)[C@@H](O)[C@@H](OS(=O)(=O)O)O[C@H]1O
Dengue virus type 2 [6]
  EC50: 1.5 µg/mL (≈ 3.24 µM)

## CO[C@H]1O[C@H](COS(=O)(=O)O)[C@H](O[C@@H]2O[C@H](CO)[C@H](O)[C@H](C)[C@H]2OS(=O)(=O)O)[C@H](O)[C@H]1OS(=O)(=O)O
Dengue virus type 2 [7]
  IC50: 0.14 µg/mL (≈ 0.235 µM)

## O=P(O)(O)OC[C@H]1O[C@H](OC2[C@H](OS(=O)(=O)O)[C@@H](OC3C(OS(=O)(=O)O)O[C@H](COS(=O)(=O)O)[C@@H](OS(=O)(=O)O)[C@@H]3OS(=O)(=O)O)O[C@H](COS(=O)(=O)O)[C@H]2OS(=O)(=O)O)[C@@H](OS(=O)(=O)O)[C@@H](OS(=O)(=O)O)[C@@H]1OS(=O)(=O)O (stereo not given in full)
Dengue virus type 2 [3]
  EC50: 200 µg/mL (≈ 144 µM)

## O=C(O)c1cc(=O)c2ccc(S[C@@H](/C=C/C=C/CCOc3ccc(Cl)c(Cl)c3)[C@H](O)c3cccc(C(F)(F)F)c3)cc2o1
Dengue virus type 2 [8]
  IC50: 6.8 µM

## Nc1c(C(=O)Nc2nc(-c3ccccc3)cs2)sc2nc3c(cc12)CC(c1ccccc1)CC3 (stereo not given)
Dengue virus type 2 [4]
  IC90: 0.112 µM

## C[C@@H]1O[C@H](C)[C@@H](O)[C@H](O)[C@@H]1OS(=O)(=O)O
Dengue virus type 2 [9]
  IC50: 4.7 µg/mL (≈ 19.4 µM)

## O=C(O)C[C@@H]1C(=O)O[C@H]2[C@@H]3OC(=O)c4cc(O)c(O)c(O)c4-c4c(cc(O)c(O)c4O)C(=O)OC[C@H]2O[C@@H](OC(=O)c2cc(O)c(O)c(O)c2)[C@@H]3OC(=O)c2cc(O)c(O)c3c2[C@H]1[C@H](O)C(=O)O3 [CHEBULAGIC ACID]
Dengue virus type 2 [10]
  EC50: 13.1 µM

## C[C@H]1c2cccc(O)c2C(=O)C2=C(O)[C@]3(O)C(=O)C(C(N)=O)=C(O)[C@@H](N(C)C)[C@@H]3[C@@H](O)[C@@H]21 [DOXYCYCLINE]
Dengue virus type 2 [11]
  IC50: 55.6 µM

## O=C1O[C@H]2[C@@H]3OC(=O)c4cc(O)c(O)c(O)c4-c4c(cc(O)c(O)c4O)C(=O)OC[C@H]2O[C@@H](OC(=O)c2cc(O)c(O)c(O)c2)[C@@H]3OC(=O)c2cc(O)c(O)c3c2[C@@H]2C1=CC(=O)[C@](O)(O3)C2(O)O [GERANIIN]
Dengue virus type 2 [12]
  IC50: 1.75 µM

## CN(C)[C@@H]1C(O)=C(C(=O)NCN2CCCC2)C(=O)[C@@]2(O)C(O)=C3C(=O)c4c(O)cccc4[C@@](C)(O)[C@H]3C[C@@H]12 [ROLITETRACYCLINE]
Dengue virus type 2 [11]
  IC50: 67.1 µM
